Measured values as given in patent publication US20030077653A1, “Method for the identification of active site protease inactivators” (The University of Georgia Research Foundation, Inc., priority 2000, published 2003).
Like-named read-outs stand apart in the source and are kept apart here. Starred links: 1 amine or outer side, 2 acyl side, 3 side chain; linkers in the order of their positions; H or OH if unused. Residues, ends and D or L forms follow the SMILES beside them. *: point of attachment. AFC = O=c1cc(C(F)(F)F)c2ccc(N*)cc2o1; Suc = O=C(CCC(=O)[*:2])[*:1]

Experiments:
[1] = tested on: Taenia crassiceps cysts; experiment: Scanning electron microscopy of surfaces of cysts removed from treated mice; format: in vivo
Text: FIG. 9. Scanning electron microscopy of the surface of cysts removed from untreated mice versus cysts removed from treated mice. Magnifications are identical for both slides in each panel. panel A (4000×). […] No immune cells were seen on cysts removed from untreated mice. Panel B (25,000×). […] Microtriches in untreated cysts can be seen to be visibly longer. Visible anchors were also noted for the untreated cysts group, whereas these anchors were not observed in microtriches from treated cysts.
For example, we hypothesized that the cysteine protease was a key parasitic molecule to allow the cyst to evade the host immune response, by cleaving host antibodies. By inhibiting the Taenia cysteine protease with Z-LLY-FMK, we hypothesized that host immunoglobulin could now bind the parasites, and initiate immunological responses (e.g., complement via IgG2a) which would cause damage to the cyst wall. […] We identified macrophages, neutrophils, fibroblasts, and collagenous deposits on the cyst surfaces from treated mice, in comparison to their absence on cysts from untreated mice. General surface atrophy was also apparent. […] Breaks in the integrity of the cyst surface were also noted for the cysts removed from treated mice. […] Cysts removed from untreated mice were characterized by no immune cells, intact and longer microtriches, and homogeneity of the cyst surface.

[2] = tested on: Taenia crassiceps cysts; experiment: Short-term prophylactic protection of BALB/c mice from cysticercosis infection; format: in vivo; settings: pre-injected two days, 10 T. crassiceps cysts/mouse, dosed daily four weeks, intraperitoneal; vs untreated controls
Description: FIG. 8. […] Each treated mouse was pre-injected intraperitoneally with inhibitor for two days. During treatment phase, each treated mouse received 1.48×10^−2 μg/μl of N2 daily for three weeks and every other day during the last week. Injections were carried out in 150 μl of dimethyl sulfoxide for each mouse. Both treated groups and positive controls were challenged intraperitoneally with 10 Taenia crassiceps cysts in 200 μl 0.15M PBS at the time of initial infection. After one month of infection, both groups were euthanized and cysts removed by washing with sterile 0.15M PBS. A minimum of two attached cysts were scored as multilobed (ML). […] (B) Graphically represents the effect of protease inhibitor treatment of BALB/c mice challenged with Taenia crassiceps cysts over a long-term period. Mice were divided into treated and untreated groups (5 mice/group).Each mouse in the treated group was pre-injected intraperitoneally with inhibitor for two days. […] Cysts were then counted by visual inspection. […]
Based upon the premise that the cyst wall cysteine protease may serve a critical finction to the life cycle of the Taenia cyst, we tested our most efficacious inhibitors, LLL-FMK and LLY-FMK (K-Pyr was used as a control), for their abilities to protect mice from cysticercosis infection. […] After one month, the mice were euthanized and the cysts counted. […]

[3] = tested on: T solium purified cysteine protease; experiment: Human IgG degradation assay (western blot; Step IV); format: biochemical, Taenia solium; settings: 18 hrs, 37° C.
Description: FIG.6. IgG degradation of heavy chain by purified cysteine protease of Taenia solium. human IgG was incubated for 18 hours with T. solium purified cysteine protease (CP). Incubated tubes were subsequently fractionated by SDS-PAGE under reducing conditions, blotted onto PVDF membrane, and visualized using biotinylated anti-IgG (heavy chain/light chain), biotin-peroxidase conjugated-strepavidin complex and enhanced chemiluminescence. Bands represent heavy chains.
To conduct this assessment, a western blot was performed. IgG digestion was detected by incubating 20 μl of T solium purified enzyme or T solium extract with 1 μg of human IgG (Sigma, St. Louis) in a fmal volume of 100 μl of assay buffer. Exogenous thiol activation was assessed by incubating the assay in the presence or absence of cysteine. The catalytic class of the IgG protease was determined by pre-incubating the following proteinase inhibitors at their active concentrations, with the enzyme: E 64 (10^−6 M, cysteine proteinases), phenylmethylsulfonyl fluoride (PMSF) (10^−3 M, serine proteinases), pepstatin A (10^−6 M, aspartic proteinases), and 1,10 phenanthroline (10^−3 M, metalloproteinases), and the vehicle, Mu-Leu-Tyr-AFC (10^−3 M). After addition of IgG, the assay was incubated overnight (37° C., 18 hrs). […]

[4] = tested on: purified Taenia solium cysteine protease; experiment: Protease inactivator inhibition assay (EC100, Ki; Step VII); format: biochemical
Text: Once the protease inactivators were synthesized in the organic laboratory, they were to be tested for the lowest efficacious concentrations at which they induced 100% inhibition of the target protease (EC100). The top percent cocktail that was employed in the final vehicle selection step of Step III was employed as the source of competition for the inhibitors. In this case, this was the […] which was comprised of Z-FR-AFC, Z-FAR-AFC, Z-AP-AFC, Z-AAK-AFC, and Z-VLR-AFC. The final result would be a ranking of transition state candidate protease inactivators with a high ranking directly correlating to a low ECIoo value. The following steps describe the assay:
Step A: Initial Screening. To set up the test control, each protease inactivator was first incubated with the 5% cocktail (which provided the final differentiation of vehicles in Step III). To begin with, the protease inactivator was incubated at a concentration of 3×10^−9M in 500 μl of assay buffer (0.2 M Citrate, pH 4.9 supplemented with 10mM L-cysteine). This concentration was determined, after a series of inhibitor dilutions identified, to be the best inhibitor concentration at which a differentiation in inhibitor potential could be noted. Next, a concentration equal to 4×10^−5M for each of the individual cocktail components, was added to the mix. The components were allowed to equilibrate for a period of 30 minutes. […]
Percent inhibition was calculated as: [formula] […]
Step C: Determination ofInhibitor Ki and mode of inhibition, and re-ranking of EC100 list with inhibitor Ki. Ki of each of the top ranked protease inactivators, based upon low EC100 values, was assessed next for the top 5 EC100 inhibitors.
In order to determine Ki, all of the high Vmax cocktail substrates were employed for Ki determination (since Ki of the inhibitor for the enzyme is the same regardless of the substrate). To insure the highest accuracy, Ki was to be determined upon a minimum of at least three of the high Kcat substrates. […]

Leu-Phe-Ketoamide-Pyridyl [K-Pyr]
Immune cells observed by SEM on cyst surfaces [1]: None
Immune cells observed by SEM on cyst surfaces ([1]; listed as K- Pyr): neither adherent immune cells nor damaged tegunent
% Prophylactic protection of BALB/c mice [2]: 40%

CC(C)C[C@H](NC(=O)[C@H]1O[C@@H]1C(=O)O)C(=O)NCCCCN=C(N)N [E64]
inhibition of cleavage of human IgG [3]: Inhibition was noted

CC(C)CC(NC(=O)CCC(=O)O)C(=O)NC(Cc1ccc(O)cc1)C(=O)Nc1ccc2c(C(F)(F)F)cc(=O)oc2c1 (stereo not drawn) [Suc-Leu-Tyr-AFC] (Suc-Leu-Tyr-{AFC}; configuration not given here)
inhibition of cleavage of human IgG [3]: ability to inhibit

CC(C)C[C@@H](/C=C/S(C)(=O)=O)NC(=O)[C@H](CC(C)C)NC(=O)[C@H](CC(C)C)NC(=O)OCc1ccccc1 [Z-LLL-VS, Z-Leu-Leu-Leu-vinylsulfone]
ranking of protease inactivators by inhibition / EC100 [4]: top inhibitors
